These results are taken from patent publication US20110136751A1, “Use of Polyphenols in the Treatment of Cancer” (Green Molecular, priority 2009, published 2011).

The subject of series [1] is Human melanoma (A375), breast cancer (MCF7), lung cancer (A549), and colon cancer (HT29) cell lines. As to the kind of experiment: Cell cycle study (flow cytometry). The format is cell-based. The following applies: treated for 24 h; FIG. 9. As to the method: Cancer cells (0.2×10^6 cells/well) were seeded in six well-plates and, 24 h later, were treated for 24 h with different concentrations ([…]) of PTER or ReES. Cells were trypsinized and pelleted at 1000×g for 2 min. Cells were resuspended in PBS. Ethanol was added up to a final 70% conc. The DNA cellular content was analyzed by flow cytometry (10000 cell events were collected per sample). Results are expressed as % of total cells±SD (n=3).
The aim of this study was to determine whether pterostilbene causes cytotoxicity in human tumors at concentrations that are reliable under in vivo conditions; and, to identify which death-related molecular mechanisms may be activated by the compound. Human melanoma (A375), breast cancer (MCF7), lung cancer (A549), and colon cancer (HT29) cell lines were used in this set of experiments. Pterostilbene and resveratrol were used in a μM range, between 10 μM (below the IC50 for all cell lines) and 200 μM (an unachievable in vivo concentration). Cell cycle and apoptosis induction were determined by flow cytometry.
The effects of pterostilbene and resveratrol on cell cycle were tested. […] Both DNA synthesis and tubulin polymerization were seriously affected.
(In general: A flow cytometer gives signals particle by particle.)

Series [2] relates to human tumor cells. The series is described as follows: Autophagy activation (LC3-II, P62/SQSTM1, GFP-LC3). The format is cell-based. The following applies: at bioavailable concentrations. The source says: In addition, there are different molecular events associating pterostilbene with autophagy activation: a) an increase of LC3-II form, indicating the processing of LC3 protein to its lapidated form; and b) an increase in P62/SQSTM1 bands and GFP-LC3 punctuation, indicating P62 accumulation and translocation of LC3 to autophagic membranes, respectively. An acute loss of tubulin organization, indicating cell cycle arrest, was also detected by immunochemistry.

For series [3] the following is noted: cited from earlier work.

As for `Oc1ccc(/C=C/c2cc(O)cc(O)c2)cc1` [RI, trans-3,5,4′-trihydroxystilbene, reference compound], in series [1], the cell cycle result is on record as “arrested in S phase”.
For `COc1cc(/C=C/c2ccc(O)cc2)cc(OC)c1` [t-PTER, trans-3,5-dimethoxy-4′-hydroxystilbene], the autophagy entry in series [2] was “activates autophagy”. Also, the cell cycle entry in series [1] was “arrested in S phase”.
As for `O=c1c(O)c(-c2ccc(O)c(O)c2)oc2cc(O)cc(O)c12` [QUER, quercetin], the “reduction in glomerular flow rate” value in series [3] (1400 mg QUER/m^2, the two affected patients, first 24 hours) is on record as approximately 20%. Moreover, in series [3] (daily i.v. bolus doses of 100 mg QUER/m2, human patients), the tolerability entry is “well tolerated”. Also, the renal toxicity entry in series [3] (i.v. bolus of 1400 mg QUER/m^2 once weekly for three weeks) was “two of ten patients”.
